In paper PMC5716993, “The interdomain flexible linker of the polypeptide GalNAc transferases dictates their long-range glycosylation preferences” (Nature Communications, 2017):

Biological target: T1, GalNAc-T4 (Homo sapiens, UniProt Q8N4A0)
T1 construct: amino acid residues 36–578 of the human GalNAc-T4; histidine tag (C); made in house; host or cells: Pichia pastoris SMD1168 (pPICZαA, secreted)
Assay: STD-NMR binding / epitope mapping
Settings: normalized to the highest STD response; 298 K, pH 7.4, UDP, MnCl2; in words
Method: All NMR experiments were recorded on a Bruker Avance 600 MHz spectrometer equipped with a triple channel cryoprobe head. The^1H NMR resonances of the peptides 1–3 were completely assigned through standard 2D-TOCSY (30 and 80 ms mixing time) and 2D-NOESY experiments (400 ms mixing time). Solution conditions used for the NMR characterization studies were 1–3 mM (glyco)peptide, 25 mM perdeuterated tris-d11 in 90:10 H2O/D2O, 7.5 mM NaCl, and 1 mM DTT, uncorrected pH 7.4. The assignments were accomplished either at 278 or 298 K. The resonance of 2,2,3,3-tetradeutero-3-trimethylsilylpropionic acid (TSP) was used as a chemical shift reference in the^1H NMR experiments (δ TSP = 0 ppm). Peak lists for the 2D-TOCSY and 2D-NOESY spectra were generated by interactive peak picking using the computer aided resonance assignment (CARA) software.
Samples for STD experiments were prepared in perdeuterated 25 mM TRIS-d11 in deuterated water, 7.5 mM NaCl, and 1 mM DTT, uncorrected pH 7.4. STD-NMR experiments were performed at 298 K in the presence of 75 μM UDP, 75 μM MnCl2 with ~880 μM peptide (or GalNAc-O-Me) and 13.5 μM GalNAc-T4 giving a molar ratio of 65:1 peptide:GalNAc-T4.
The STD-NMR spectra were acquired with 1920 transients in a matrix with 64 k data points in t2 in a spectral window of 12335.53 Hz centered at 2819.65 Hz. An excitation sculpting module with gradients was employed to suppress the water proton signals. Selective saturation of the protein resonances (on resonance spectrum) was performed by irradiating at −1 ppm using a series of Eburp2.1000-shaped 90° pulses (50 ms, 1 ms delay between pulses) for a total saturation time of 2.0 s. For the reference spectrum (off resonance), the samples were irradiated at 100 ppm. Proper control experiments were performed with the ligands in the presence and absence of the protein in order to optimize the frequency for protein saturation (−1 ppm) and to ensure that the ligand signals were not affected. […] This nonspecific saturation was taken into account, by subtraction, when quantifying the STD-NMR data in the presence of the transferase. As well, a blank STD experiment with only the protein was also recorded. The substraction of this protein STD spectrum allowed eliminating the signal background of the protein. In all cases, to accomplish the STD-NMR-derived epitope mapping of each ligand, the STD-NMR total intensities were normalized with respect to the highest STD-NMR response. For Fig. 2b and Supplementary Fig. 1, the STD response of each amino acid corresponds to the average of STD percentages of all amino acid proton resonances that were measured with sufficient accuracy. The signal of the anomeric proton of as well as, the Hα protons of the Ala amino acids of glycopeptides could not be analyzed in the STD-NMR spectra due to their close proximity to the HDO resonance. Proton resonances, from Gly and Pro, appear in the same chemical shift region of the spectrum and were not discriminated.

T1 sequence (Q8N4A0 36-578): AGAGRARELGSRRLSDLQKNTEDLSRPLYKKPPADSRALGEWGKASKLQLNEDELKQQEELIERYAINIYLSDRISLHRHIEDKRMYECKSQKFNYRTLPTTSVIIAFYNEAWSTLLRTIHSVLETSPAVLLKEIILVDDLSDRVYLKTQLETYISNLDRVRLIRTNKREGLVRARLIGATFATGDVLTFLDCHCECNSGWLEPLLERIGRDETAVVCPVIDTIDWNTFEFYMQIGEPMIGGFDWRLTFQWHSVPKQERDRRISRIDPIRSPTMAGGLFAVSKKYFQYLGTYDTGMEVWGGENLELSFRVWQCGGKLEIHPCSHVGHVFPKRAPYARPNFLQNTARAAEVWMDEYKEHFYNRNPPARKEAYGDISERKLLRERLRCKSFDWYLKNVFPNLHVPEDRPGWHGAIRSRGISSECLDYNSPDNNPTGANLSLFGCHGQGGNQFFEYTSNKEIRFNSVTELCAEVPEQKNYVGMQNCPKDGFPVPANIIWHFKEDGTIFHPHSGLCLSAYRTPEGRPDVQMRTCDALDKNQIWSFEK

## CO[C@H]1O[C@H](CO)[C@H](O)[C@H](O)[C@H]1NC(C)=O [α-methyl-GalNAc, reference compound]
  STD-NMR-derived epitope mapping of GalNAc moiety: the highest STD response corresponded to the H2 proton of the GalNAc moiety followed by a modest STD of protons H4, H3, and N-acetyl group
